Where “and” joins values, the source holds several entries; their conditions need not be identical. Equal values may be shown once.
What was measured:
[1] = tested on: normally potent male patients suffering from premature ejaculation; experiment: Example 1 prospective study: ejaculatory latency time (ELT) and frequency of intercourse, dose conversion and continual maintenance regimens; assay type: in vivo, human; conditions: for mean ELT after treatment: from a mean ELT of less than one minute
Protocol: The term “premature ejaculation” as used herein refers to ejaculation that occurs within 60 seconds of vaginal intromission. […] The patients were selected on the basis of a having baseline pretreatment ejaculation latency time (“ELT”) of less than about two minutes. An ELT of less than one minute was regarded as severe premature ejaculation dysfunction. In contrast, the average ELT of a normally potent person is about three to about four minutes. The baseline ELT of the patient was determined as the mean of measurements at a minimum of two acts of sexual intercourse prior to commencing treatment using a stopwatch operated by the patient. […] The term “acute” with respect to the dosing means that the patient ingested an oral dose of paroxetine daily after breakfast or lunch for a period of at least one week. The patients were supplied with an ejaculation diary and were asked to record their frequency of coitus, quality of erection and orgasm, and to record their ELT using a stopwatch. The patients were required to attempt coitus on at least two occasions each week at home. In some trials, the patient's partner was also instructed on the use of the stopwatch and asked to record their recollection of the timing of the patient's ejaculation. […] All patients in the study group were heterosexual, had no other sexual disorders and were either married or in a stable relationship. […] The mean age of the 94 patients was 39 years (range 18-61 years). […] Vital signs, such as heart rate, blood pressure and the like were also monitored by the Registered Nurse. […] Of the group, 55 men (59%) had lifelong premature ejaculation, with the remaining 39 men (41%) describing acquired premature ejaculation with previous acceptable ejaculatory control. Of the 55 men with lifelong premature ejaculation, 10 men (18%) had severe lifelong premature ejaculation and had never achieved intravaginal ejaculation. The patients in the study were enrolled into two groups, Group A and Group B. […] Each patient was supplied with an ejaculation diary and instructed to record their frequency of coitus, quality of erection and orgasm, and to measure and record their ejaculatory latency time using a stop-watch. The patients were required to attempt coitus on at least two occasions each week. Statistical analysis: A Student's t-test was used to compare the mean ELT values before and after treatment with paroxetine for each of Groups A and B.

[2] = tested on: central β-adrenergic receptors; conditions: unlike sertraline; cited from earlier work
dopamine receptors = conditions: unlike sertraline; cited from earlier work
[3] = tested on: normally potent male patients suffering from premature ejaculation; experiment: Example 2 Study Group 2: single blind cross-over, daily paroxetine then continual maintenance vs placebo (ELT, coitus frequency); assay type: in vivo, human
P450 2D6 enzyme = P450 2D6 enzyme (Homo sapiens, UniProt P10635); conditions: cited from earlier work
P450 2D6 enzyme, sequence (P10635 whole entry): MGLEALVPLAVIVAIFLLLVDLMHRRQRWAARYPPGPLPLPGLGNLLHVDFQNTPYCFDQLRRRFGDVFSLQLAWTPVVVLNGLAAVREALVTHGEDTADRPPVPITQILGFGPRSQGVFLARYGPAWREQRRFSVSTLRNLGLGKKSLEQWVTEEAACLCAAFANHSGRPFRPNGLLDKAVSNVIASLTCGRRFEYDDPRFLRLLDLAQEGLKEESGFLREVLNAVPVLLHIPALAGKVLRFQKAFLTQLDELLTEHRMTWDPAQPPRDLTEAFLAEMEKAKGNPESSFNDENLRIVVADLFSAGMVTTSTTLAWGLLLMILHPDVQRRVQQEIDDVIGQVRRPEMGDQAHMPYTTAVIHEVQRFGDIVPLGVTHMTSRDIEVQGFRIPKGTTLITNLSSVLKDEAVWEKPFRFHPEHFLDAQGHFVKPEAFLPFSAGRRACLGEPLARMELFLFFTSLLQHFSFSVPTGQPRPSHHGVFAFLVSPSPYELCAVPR

[4] = cited from earlier work
[5] = tested on: normally potent male patients suffering from premature ejaculation; experiment: Example 1: incidence of adverse effects; assay type: in vivo, human
Source text: All patients in the study group were heterosexual, had no other sexual disorders and were either married or in a stable relationship. The baseline pre-treatment ELT for the group, determined as the mean of measurements from a minimum of two acts of sexual intercourse was 2.2 (range 2-3) as reported by patients prior to commencement of the study using a stop watch operated by the patients.
Each patient was supplied with an ejaculation diary and instructed to record their frequency of coitus, quality of erection and orgasm, and to measure and record their ejaculatory latency time using a stop-watch. The patients were required to attempt coitus on at least two occasions each week.

[6] = Group A-Phase 2: 20 mg continual maintenance dose 3-4 hours prior to intercourse, further four weeks after Phase 1, 53 men
[7] = Group A-Phase 2: 20 mg continual maintenance, the 36/53 patients
[8] = Group B: 20 mg continual maintenance dose only, 3-4 hours prior to intercourse, four weeks, 33 men
[9] = Group B: solely 20 mg continual maintenance, the 14/33 responders
[10] = Group B: solely 20 mg continual maintenance, the 19/33 non-responders
[11] = Study Group 2-C, week 1: paroxetine 10 mg daily
[12] = Study Group 2-C, week 2: paroxetine 10 mg daily
[13] = Study Group 2-C, week 3: paroxetine 10 mg daily
[14] = Study Group 2-C, week 4: paroxetine 20 mg continual maintenance after three weeks 10 mg daily
[15] = Study Group 2-C, week 5: paroxetine 20 mg continual maintenance after three weeks 10 mg daily
[16] = Study Group 2-C, week 6: paroxetine 20 mg continual maintenance after three weeks 10 mg daily
[17] = Study Group 2-C, week 7: paroxetine 20 mg continual maintenance after three weeks 10 mg daily
[18] = Study Group 2-D, week 11: paroxetine 10 mg daily, first week after placebo phases and washout
[19] = Study Group 2-D, week 12: paroxetine 10 mg daily, second week after placebo phases and washout
[20] = Study Group 2-D, week 13: paroxetine 10 mg daily, third week after placebo phases and washout
[21] = Study Group 2-D, week 14: paroxetine 20 mg continual maintenance after three weeks 10 mg daily
[22] = Study Group 2-D, week 15: paroxetine 20 mg continual maintenance after three weeks 10 mg daily
[23] = Study Group 2-D, week 16: paroxetine 20 mg continual maintenance after three weeks 10 mg daily
[24] = Study Group 2-D, week 17: paroxetine 20 mg continual maintenance after three weeks 10 mg daily
[25] = Group A-Phase 1: 20 mg acute daily dosing
[26] = Group A-Phase 1: 20 mg acute daily dosing, 61 patients

SMILES: Fc1ccc([C@@H]2CCNC[C@H]2COc2ccc3c(c2)OCO3)cc1 (relative stereo) [paroxetine, trans-(−)-3-(1,3-benzodioxol-5-yloxy)methyl-4-(4-fluorophenyl) piperidine]
- patients who achieved and maintained improved ejaculatory control ([1]; Group A overall (36/61): four weeks daily 20 mg followed by conversion to continual maintenance): 59%
- mean Frequency Intercourse Times/Week ([1]; Group A-Phase 1: 20 mg acute dose daily for four weeks, 61 men): 2.4 Times/Week
- mean ELT ([1]; Group A-Phase 1: 20 mg acute dose daily, at four weeks, 61 men): 4.5 min
- patients who regarded their ejaculatory control as significantly improved ([1]; Group A-Phase 1: 20 mg daily for four weeks, 53 of 61 patients): 87%
- ELT of patients with improved ejaculatory control ([1]; Group A-Phase 1: 20 mg daily, after four weeks, the 53/61 responders): 5.1 min
- mean ELT ([1]; Group A-Phase 1: 20 mg daily, after one week of treatment): 1.1 min
- mean ELT ([1]; Group A-Phase 1: 20 mg daily, after two weeks): 1.6 min
- mean ELT of patients without improved control ([1]; Group A-Phase 1: 20 mg daily, at four weeks, the 8/61 non-responders): 0.6 min
- mean ELT ([1]; Group A-Phase 1: 20 mg daily, at three weeks): 3.5 min
- frequency of sexual intercourse acts of patients without improved control ([1]; Group A-Phase 1: 20 mg daily, the 8/61 non-responders): 1.7 times/week
- frequency of sexual intercourse acts of patients with improved ejaculatory control ([1]; Group A-Phase 1: 20 mg daily, the 53/61 responders): 2.5 times/week
- mean ELT [1, 6]: 3.9 min
- mean Frequency Intercourse Times/Week [1, 6]: 2.6 Times/Week
- mean ELT of patients who failed to maintain improved control ([1]; Group A-Phase 2: 20 mg continual maintenance, at four weeks, the 16/53 men): 0.6 min
- frequency of acts of sexual intercourse/week of patients who failed to maintain improved control ([1]; Group A-Phase 2: 20 mg continual maintenance, the 16/53 men): 2.8 acts of sexual intercourse/week
- frequency of acts of sexual intercourse/week of patients who maintained improved control [1, 7]: 2.4 acts of sexual intercourse/week
- mean ELT of patients who maintained improved ejaculatory control [1, 7]: 5.5 min
- patients who failed to maintain improved ejaculatory control (recurrence of premature ejaculation) ([1]; Group A-Phase 2: after conversion from daily to 20 mg continual maintenance, 16/53): 31% and 32%
- patients who maintained improved ejaculatory control ([1]; Group A-Phase 2: four weeks 20 mg continual maintenance after four weeks daily, 36/53): 69% and 68%
- mean ELT [1, 8]: 1.5 min
- mean Frequency Intercourse Times/Week [1, 8]: 2.2 Times/Week
- patients who regarded their ejaculatory control as significantly improved (fraction of patients) ([1]; Group B: solely 20 mg continual maintenance): 14/33
- patients who achieved ejaculatory control ([1]; Group B: solely 20 mg continual maintenance, 14 of 33): 42%
- frequency of acts of sexual intercourse/week of patients with improved control [1, 9]: 2.4 acts of sexual intercourse/week
- mean ELT of patients with improved ejaculatory control [1, 9]: 2.7 min
- frequency of acts of intercourse/week of patients with no change in ejaculatory control [1, 10]: two
- mean ELT of patients with no change in ejaculatory control [1, 10]: 0.4 min
- mean ELT after treatment ([1]; four weeks initial loading and four weeks continual maintenance): greater than 2.5 minutes
- men achieving intra-vaginal ejaculation for the first time ([1]; men with severe lifelong premature ejaculation who had never achieved intra-vaginal ejaculation (including four in Group B)): 10/10
- time to improved ejaculatory control after initiating treatment ([1]; paroxetine oral therapy regimen): 1-2 weeks
- mean ELT after treatment ([1]; solely continual maintenance dosage over about four weeks): at least 1.5 minutes
- affinity for central β-adrenergic receptors [2]: little affinity
- affinity for dopamine receptors (dopamine receptors): little affinity
- Coitus Frequency/wk [3, 11]: 1.7 /wk
- Ejaculatory Latency Time [3, 11]: 1.2 min
- Coitus Frequency/wk [3, 12]: 1.9 /wk
- Ejaculatory Latency Time [3, 12]: 1.8 min
- Coitus Frequency/wk [3, 13]: 2.7 /wk
- Ejaculatory Latency Time [3, 13]: 4.3 min
- Coitus Frequency/wk [3, 14]: 2.3 /wk
- Ejaculatory Latency Time [3, 14]: 4.5 min
- Coitus Frequency/wk [3, 15]: 2.0 /wk
- Ejaculatory Latency Time [3, 15]: 5.2 min
- Coitus Frequency/wk [3, 16]: 2.9 /wk
- Ejaculatory Latency Time [3, 16]: 4.7 min
- Coitus Frequency/wk [3, 17]: 2.4 /wk
- Ejaculatory Latency Time [3, 17]: 5.8 min
- Coitus Frequency/wk [3, 18]: 2.0 /wk
- Ejaculatory Latency Time [3, 18]: 2.2 min
- Coitus Frequency/wk [3, 19]: 2.2 /wk
- Ejaculatory Latency Time [3, 19]: 3.5 min
- Coitus Frequency/wk [3, 20]: 3.1 /wk
- Ejaculatory Latency Time [3, 20]: 3.3 min
- Coitus Frequency/wk [3, 21]: 3.0 /wk
- Ejaculatory Latency Time [3, 21]: 4.2 min
- Coitus Frequency/wk [3, 22]: 2.6 /wk
- Ejaculatory Latency Time [3, 22]: 3.9 min
- Coitus Frequency/wk [3, 23]: 2.5 /wk
- Ejaculatory Latency Time [3, 23]: 4.6 min
- Coitus Frequency/wk [3, 24]: 2.7 /wk
- Ejaculatory Latency Time [3, 24]: 6.1 min
- patients achieving intra-vaginal ejaculation for the first time ([3]; Study Group 2, patients who had never previously achieved it, after two weeks of treatment): all of the five
- inhibition of the P450 2D6 enzyme (P450 2D6 enzyme): potent inhibitor
- time to steady state systemic levels ([4]; occurring after about): 7 to 14 days
- half life ([4]; reportedly): 24 h
- time to peak plasma levels ([4]; usually achieved within about): 2 to 8 h
- Adverse effects: Total Patients (fraction) [5, 25]: 12/61
- Adverse effects: Total Patients (percent) [5, 25]: 20%
- Adverse Effect: Drowsiness (patients) [5, 26]: 1
- Adverse Effect: Inhibited orgasm (patients) [5, 26]: 3
- Adverse effect: Anejaculation (patients) [5, 26]: 5
- Adverse effect: Anorexia (patients) [5, 26]: 1
- Adverse effect: Gastrointestinal upset (patients) [5, 26]: 2
- Adverse effect: Reduced Libido (patients) [5, 26]: 3
- patients with inhibition of orgasm despite achieving ejaculation (percent) ([5]; Group A-Phase 1: acute treatment with 20 mg paroxetine/day, 3/61): 5%
- patients with anejaculation (percent) ([5]; Group A-Phase 1: acute treatment with 20 mg paroxetine/day, 5/61): 8%
- Adverse effects: Total Patients (fraction) ([5]; Group A-Phase 2: 20 mg continual maintenance after conversion): None and 0/53
- Adverse effects: Total Patients (fraction) ([5]; Group B: 20 mg continual maintenance only): None and 0/33
- Erectile dysfunction ([5]; all patients of Example 1): not reported by any of the patients
- patients with anejaculation achieving ejaculation with a reduced dose ([5]; anejaculation on 20 mg/day, reduced dose of 5 mg (n=3) and 10 mg (n=1)): 4/5

Reference: US20020035131A1, “Regimen and kit for amelioration of premature ejaculation” (Pentech Pharmaceuticals, Inc., priority 1999, published 2002)
